Data as given in PubChem BioAssay (NCI).
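Where inhibition never reached the appropriate level, the endpoint shown equals the highest concentration tested. Otherwise, values were interpolated linearly from a five-concentration, 48-hour dose response in 96-well plates. The concentration for 50% growth inhibition is given as GI50. TGI is the concentration that stops growth completely.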

Legend:
Test in all cases: inhibition of tumour cell growth, NCI panel, 48 h; in the data active = GI50 below about 0.43 µM; inactive = the rest
786-0 renal = test system: 786-0 renal
A498 renal = test system: A498 renal
A549 NSCLC = test system: A549 NSCLC
ACHN renal = test system: ACHN renal
BT-549 breast = test system: BT-549 breast
CAKI-1 renal = test system: CAKI-1 renal
CCRF-CEM leukemia = test system: CCRF-CEM leukemia
COLO 205 colon = test system: COLO 205 colon
DU-145 prostate = test system: DU-145 prostate
EKVX NSCLC = test system: EKVX NSCLC
HCC-2998 colon = test system: HCC-2998 colon
HCT-116 colon = test system: HCT-116 colon
HCT-15 colon = test system: HCT-15 colon
HL-60(TB) leukemia = test system: HL-60(TB) leukemia
HOP-62 NSCLC = test system: HOP-62 NSCLC
HOP-92 NSCLC = test system: HOP-92 NSCLC
HS 578T breast = test system: HS 578T breast
HT29 colon = test system: HT29 colon
IGROV1 ovarian = test system: IGROV1 ovarian
K-562 leukemia = test system: K-562 leukemia
KM12 colon = test system: KM12 colon
LOX IMVI melanoma = test system: LOX IMVI melanoma
M14 melanoma = test system: M14 melanoma
MALME-3M melanoma = test system: MALME-3M melanoma
MCF7 breast = test system: MCF7 breast
MDA-MB-231 breast = test system: MDA-MB-231 breast
MDA-MB-435 = test system: MDA-MB-435
MOLT-4 leukemia = test system: MOLT-4 leukemia
NCI-H226 lung = test system: NCI-H226 lung
NCI-H23 lung = test system: NCI-H23 lung
NCI-H460 lung = test system: NCI-H460 lung
NCI-H522 lung = test system: NCI-H522 lung
NCI/ADR-RES ovarian = test system: NCI/ADR-RES ovarian
OVCAR-3 ovarian = test system: OVCAR-3 ovarian
OVCAR-4 ovarian = test system: OVCAR-4 ovarian
OVCAR-5 ovarian = test system: OVCAR-5 ovarian
OVCAR-8 ovarian = test system: OVCAR-8 ovarian
PC-3 prostate = test system: PC-3 prostate
RPMI-8226 leukemia = test system: RPMI-8226 leukemia
RXF 393 renal = test system: RXF 393 renal
SF-268 CNS = test system: SF-268 CNS
SF-295 CNS = test system: SF-295 CNS
SF-539 CNS = test system: SF-539 CNS
SK-MEL-2 melanoma = test system: SK-MEL-2 melanoma
SK-MEL-28 melanoma = test system: SK-MEL-28 melanoma
SK-MEL-5 melanoma = test system: SK-MEL-5 melanoma
SK-OV-3 ovarian = test system: SK-OV-3 ovarian
SN12C renal = test system: SN12C renal
SNB-19 CNS = test system: SNB-19 CNS
SNB-75 CNS = test system: SNB-75 CNS
SR leukemia = test system: SR leukemia
SW-620 colon = test system: SW-620 colon
T-47D breast = test system: T-47D breast
TK-10 renal = test system: TK-10 renal
U251 CNS = test system: U251 CNS
UACC-257 melanoma = test system: UACC-257 melanoma
UACC-62 melanoma = test system: UACC-62 melanoma
UO-31 renal = test system: UO-31 renal

CNC(=O)c1ccc(N2C(=S)N(c3cnc(C#N)c(C(F)(F)F)c3)C(=O)C23CCC3)cc1F
inactive: GI50 (786-0 renal) > 100 µM | GI50 (A498 renal) > 53.2 µM | GI50 (A549 NSCLC) > 100 µM | GI50 (ACHN renal) > 100 µM | GI50 (BT-549 breast) > 77 µM | GI50 (CAKI-1 renal) > 100 µM | GI50 (CCRF-CEM leukemia) > 100 µM | GI50 (COLO 205 colon) > 100 µM | GI50 (DU-145 prostate) > 100 µM | GI50 (EKVX NSCLC) > 100 µM | GI50 (HCC-2998 colon) > 100 µM | GI50 (HCT-116 colon) > 95.4 µM | GI50 (HCT-15 colon) > 100 µM | GI50 (HL-60(TB) leukemia) 63.9 µM | GI50 (HOP-62 NSCLC) > 100 µM | GI50 (HOP-92 NSCLC) > 86.7 µM | GI50 (HS 578T breast) > 100 µM | GI50 (HT29 colon) > 100 µM | GI50 (IGROV1 ovarian) > 100 µM | GI50 (K-562 leukemia) > 100 µM | GI50 (KM12 colon) > 100 µM | GI50 (LOX IMVI melanoma) > 100 µM | GI50 (M14 melanoma) > 100 µM | GI50 (MALME-3M melanoma) 98.3 µM | GI50 (MCF7 breast) 99.8 µM | GI50 (MDA-MB-231 breast) > 100 µM | GI50 (MDA-MB-435) > 100 µM | GI50 (MOLT-4 leukemia) 61.9 µM | GI50 (NCI-H226 lung) > 100 µM | GI50 (NCI-H23 lung) > 100 µM | GI50 (NCI-H460 lung) > 100 µM | GI50 (NCI-H522 lung) > 100 µM | GI50 (NCI/ADR-RES ovarian) > 100 µM | GI50 (OVCAR-3 ovarian) > 100 µM | GI50 (OVCAR-4 ovarian) > 79.2 µM | GI50 (OVCAR-5 ovarian) > 100 µM | GI50 (OVCAR-8 ovarian) > 100 µM | GI50 (PC-3 prostate) > 100 µM | GI50 (RPMI-8226 leukemia) 59.3 µM | GI50 (RXF 393 renal) > 44.8 µM | GI50 (SF-268 CNS) > 100 µM | GI50 (SF-295 CNS) > 100 µM | GI50 (SF-539 CNS) > 100 µM | GI50 (SK-MEL-2 melanoma) > 100 µM | GI50 (SK-MEL-28 melanoma) > 100 µM | GI50 (SK-MEL-5 melanoma) > 100 µM | GI50 (SK-OV-3 ovarian) > 100 µM | GI50 (SN12C renal) > 100 µM | GI50 (SNB-19 CNS) > 100 µM | GI50 (SNB-75 CNS) > 100 µM | GI50 (SR leukemia) 51.5 µM | GI50 (SW-620 colon) > 100 µM | GI50 (T-47D breast) 80.6 µM | GI50 (TK-10 renal) > 100 µM | GI50 (U251 CNS) > 100 µM | GI50 (UACC-257 melanoma) > 95 µM | GI50 (UACC-62 melanoma) > 70.5 µM | GI50 (UO-31 renal) > 72.1 µM
> 100 µM: TGI (786-0 renal) | TGI (A498 renal) | TGI (A549 NSCLC) | TGI (ACHN renal) | TGI (BT-549 breast) | TGI (CAKI-1 renal) | TGI (CCRF-CEM leukemia) | TGI (COLO 205 colon) | TGI (DU-145 prostate) | TGI (EKVX NSCLC) | TGI (HCC-2998 colon) | TGI (HCT-116 colon) | TGI (HCT-15 colon) | TGI (HL-60(TB) leukemia) | TGI (HOP-62 NSCLC) | TGI (HOP-92 NSCLC) | TGI (HS 578T breast) | TGI (HT29 colon) | TGI (IGROV1 ovarian) | TGI (K-562 leukemia) | TGI (KM12 colon) | TGI (LOX IMVI melanoma) | TGI (M14 melanoma) | TGI (MALME-3M melanoma) | TGI (MCF7 breast) | TGI (MDA-MB-231 breast) | TGI (MDA-MB-435) | TGI (MOLT-4 leukemia) | TGI (NCI-H226 lung) | TGI (NCI-H23 lung) | TGI (NCI-H460 lung) | TGI (NCI-H522 lung) | TGI (NCI/ADR-RES ovarian) | TGI (OVCAR-3 ovarian) | TGI (OVCAR-4 ovarian) | TGI (OVCAR-5 ovarian) | TGI (OVCAR-8 ovarian) | TGI (PC-3 prostate) | TGI (RPMI-8226 leukemia) | TGI (RXF 393 renal) | TGI (SF-268 CNS) | TGI (SF-295 CNS) | TGI (SF-539 CNS) | TGI (SK-MEL-2 melanoma) | TGI (SK-MEL-28 melanoma) | TGI (SK-MEL-5 melanoma) | TGI (SK-OV-3 ovarian) | TGI (SN12C renal) | TGI (SNB-19 CNS) | TGI (SNB-75 CNS) | TGI (SR leukemia) | TGI (SW-620 colon) | TGI (T-47D breast) | TGI (TK-10 renal) | TGI (U251 CNS) | TGI (UACC-257 melanoma) | TGI (UACC-62 melanoma) | TGI (UO-31 renal)
